Experimental data as given in US20120020876A1, “HEDGEHOG PATHWAY INHIBITORS” (priority 2009, published 2012).
“Also recorded” adds a separate entry of the source.

Key:
Format in all cases: in vivo, mouse
[1] = 19F NMR of fluorinated gemcitabine metabolites in tissue; settings: KPC tumors; 10 days of treatment; vs untreated tumors
Method: Mice were treated with indicated regiments for 12 days. […] Tissues were rapidly dissected and snap frozen in liquid nitrogen. Tissue specimens were maintained at −80° C. until subjected to nucleotide extraction. Samples were homogenized in a Qiagen TissueLyser with a 5 mm ball bearing for 2×6 minutes at 25 KHz, in the presence of 4 volumes of ice-cold acetonitrile (μL acetonitrile=4×[…] of tissue). An equal volume of water was added and then the sample was spun at 14,000 rpm for 10 minutes at 4° C. Supernatant was freeze dried, resuspended in 600 μL of D2O and transferred to a 5 mm standard NMR tube (Wilmad) for ^19F NMR analysis on a Bruker 600 MHZ (14.1T) Avance NMR spectrometer using a QNP probe. Acquisition parameters included a 1D pulse sequence of ^19F observation and inverse-gated ^1H decoupling, spectral sweep width of 177 ppm (100000 Hz), 4096 scans and 1.65 sec of repetition time. Total acquisition time for each sample was about 1 hr 55 min. Trichloro-fluoro-methane was used for ^19F NMR chemical shift calibrations. A broad hump observed in the baseline of ^19F NMR spectra was removed by application of Linear-prediction (LP) back projection to the time domain data by using 2000 (number of LP) coefficients and 128 back-prediction points prior to Fourier transformation and phase correction. […]

[2] = tested on: pancreatic tumors in KPC mice; assay: Survival study of tumor-bearing KPC mice; settings: KPC mice enrolled with 5-10 mm tumors
Method: vehicles: 20 μL/g 0.85% NaCl+8 μL/g 5% HPBCD;
Compound A: 40 mg/kg Compound A+20 μL/g 0.85% NaCl;
For survival studies, mice were enrolled following the detection of 5-10 mm diameter tumor by ultrasound. Tumors were quantified by 3D ultrasound twice weekly until endpoint.

KPC tumors [3] = assay: Doxorubicin delivery to treated KPC tumors (doxorubicin fluorescence, laser scanning cytometry); settings: KPC tumors after 8-12 days of treatment; doxorubicin 20 mg/kg infused
Method: To assess the functional vasculature, biotin-conjugated Lycopersicon esculentum lectin (B1175-1 mg, Vector Laboratories) was resuspended in 425 μL PBS and mixed with 75 μL of 1 mg/mL Streptavidin-AlexaFluor 633 (S21375, Molecular Probes) (in sterile PBS). Prior to use, the lectin-avidin mixture was centrifuged 14,000 k on a microfuge for 10 minutes to remove any particulate. Fifteen minutes prior to euthanasia, 100 μl (0.4 mg total) of the conjugated lectin was administered as a slow intravenous infusion over 5 minutes, and the hemodynamics monitored closely to ensure that it was tolerated. […]
Mice were perfused with 4% paraformaldehyde in PBS, pH 7.4, while under terminal anesthesia. […] Doxorubicin fluorescence was determined by quantitative imaging cytometry using the iCys Research Imaging Cytometer (CompuCyte, Cambridge, Mass.) with iNovator software (CompuCyte).
A scanning protocol for quantification was configured with two channels. Nuclear DAPI fluorescence was excited by the 405 nm diode laser and detected in the blue ([…]) channel and doxorubicin fluorescence was excited by the argon […] laser and detected in the orange ([…]) channel. The threshold in the DAPI channel was optimised to selectively contour individual cells allowing fluorescence measurement within the primary and peripheral nuclear contours. […]

KPC tumors [4] = assay: Histology (H&E) of treated KPC tumors; settings: KPC tumors after 8-12 days of treatment
KPC pancreatic tumors = assay: Monitoring of KPC pancreatic tumor volume by 3D high resolution ultrasonography; settings: gemcitabine 100 mg/kg twice weekly, Compound A 40 ug/kg/day, or both
Source text: For survival studies, mice were enrolled following the detection of 5-10 mm diameter tumor by ultrasound. Tumors were quantified by 3D ultrasound twice weekly until endpoint. High resolution ultrasound (US) imaging of normal and diseased mouse pancreas using the Vevo 770 System with a 35 MHz RMV scanhead (Visual Sonics, Inc.). 3D images were produced using the 3D motor arm to collect serial images at 0.25 mm intervals through the thickness of the tumor. Tumors were outlined on each 2D image and reconstructed to quantify the 3D volume using the integrated Vevo 770 software package.

## CC1=C2C[C@H]3[C@@H](CC[C@@H]4C[C@H](NS(C)(=O)=O)CC[C@@]43C)[C@@H]2CC[C@@]2(C1)O[C@@H]1C[C@H](C)CN[C@H]1[C@H]2C.Cl [Compound A]
[1]
  concentration of gemcitabine metabolites in KPC tumor tissue: No difference
[2]
  effect on survival of KPC mice: Neither gemcitabine nor Compound A treatment had an effect on the survival
KPC tumors [3]
  doxorubicin delivery to tumor tissue (fluorescence per unit area): evident but more variable; also recorded: increased content
KPC tumors [4]
  tumor stroma / histological pattern: dramatically altered histological patterns; also recorded: loss of cellular and acellular stroma
KPC pancreatic tumors
  objective (ultrasonographic) response, responding mice/treated mice: 2/10
